Measured values published in PMC3356437 (Peptides, 2012).
In brackets after ≈: the same amount, converted by molar mass. Where two headings read alike, the source gives them in different places. Where a SMILES comes first, the peptide text is derived from it.

What was measured:
P. aeruginosa PAO1 = assay type: cell-based, Pseudomonas aeruginosa
P. gingivalis W50 = assay type: cell-based, Porphyromonas gingivalis
E. coli DHα5 = assay type: cell-based, Escherichia coli
[1] = target: T1, LPS-binding protein (LBP) (Homo sapiens, UniProt P18428); test: LPS binding to LPS-binding protein; conditions: LPS + 180–200 μg/ml GL13K; mean ± SEM, N=3
T1 sequence (P18428 26-481): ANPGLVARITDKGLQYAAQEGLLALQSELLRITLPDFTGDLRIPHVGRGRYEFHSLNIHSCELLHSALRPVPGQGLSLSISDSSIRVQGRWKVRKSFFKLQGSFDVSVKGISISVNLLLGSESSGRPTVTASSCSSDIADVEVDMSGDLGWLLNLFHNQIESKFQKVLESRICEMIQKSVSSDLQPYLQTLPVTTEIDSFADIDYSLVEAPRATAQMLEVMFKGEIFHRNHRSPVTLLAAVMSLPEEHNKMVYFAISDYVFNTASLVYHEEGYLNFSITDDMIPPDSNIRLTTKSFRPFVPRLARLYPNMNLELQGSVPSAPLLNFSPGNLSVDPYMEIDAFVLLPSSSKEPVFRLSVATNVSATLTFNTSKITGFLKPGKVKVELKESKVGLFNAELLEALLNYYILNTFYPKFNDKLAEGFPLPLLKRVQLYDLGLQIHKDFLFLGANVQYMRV

red blood cells [2] = system: red blood cells
red blood cells [3] = conditions: cited from earlier work
[4] = system: P. gingivalis (53977, DPG3, W50); test: Bacterial killing assay; assay type: cell-based, Porphyromonas gingivalis; conditions: three strains, 200 μg/ml peptide, 2 ½ hours, 35°C, CFU
E. coli = assay type: cell-based, Escherichia coli; conditions: 50% saliva (45% in legend) in PBS, 2 hours, 35°C

| Compound | MIC (P. aeruginosa PAO1) [µg/mL] | MIC (P. gingivalis W50; W50) [µg/mL] | MIC (E. coli DHα5) [µg/mL] | MIC, 50% saliva (E. coli DHα5) [µg/mL] | Bactericidal activity [4] | Reduction of CFU / bactericidal activity in the presence of saliva (E. coli) | other results |
| --- | --- | --- | --- | --- | --- | --- | --- |
| CC[C@H](C)[C@H](NC(=O)[C@H](CCC(N)=O)NC(=O)CN)C(=O)N[C@H](C(=O)N[C@@H](CC(N)=O)C(=O)N[C@@H](CC(C)C)C(=O)N[C@@H](CCCCN)C(N)=O)[C@@H](C)CC [GK7NH2] (H-GQIINLK-NH2) | >167 | >167 | >200 | >167 | – | – | – |
| CC[C@H](C)[C@H](NC(=O)[C@H](CCCCN)NC(=O)CN)C(=O)N[C@H](C(=O)N[C@@H](CCCCN)C(=O)N[C@@H](CC(C)C)C(=O)N[C@@H](CCCCN)C(=O)N[C@@H](C)C(=O)N[C@@H](CO)C(=O)N[C@@H](CC(C)C)C(=O)N[C@@H](CCCCN)C(=O)N[C@@H](CC(C)C)C(=O)N[C@@H](CC(C)C)C(N)=O)[C@@H](C)CC [GL13K] (H-GKIIKLKASLKLL-NH2) | – | – | 5 (≈ 3.51 µM) | 50 (≈ 35.1 µM) | – | – | LBP binding of LPS relative to LPS alone (100%) [1]: 45.3%±9.7% (N=3); Hemagglutination (red blood cells [2]): did not cause hemagglutination |
| CC[C@H](C)[C@H](NC(=O)[C@H](CCC(N)=O)NC(=O)CN)C(=O)N[C@H](C(=O)N[C@@H](CC(N)=O)C(=O)N[C@@H](CC(C)C)C(=O)N[C@@H](CCCCN)C(=O)N[C@@H](C)C(=O)N[C@@H](CO)C(=O)N[C@@H](CC(C)C)C(=O)N[C@@H](CC(=O)O)C(=O)N[C@@H](CC(C)C)C(=O)N[C@@H](CC(C)C)C(N)=O)[C@@H](C)CC [GL13NH2] (H-GQIINLKASLDLL-NH2) | >167 | >167 | >200 | – | – | – | Hemagglutination (caused, implied by contrast with GL13K) (red blood cells [3]): hemagglutination |
| CC[C@H](C)[C@H](NC(=O)[C@H](CCCCN)NC(=O)[C@H](CCC(=O)O)NC(=O)[C@H](CCCCN)NC(=O)[C@H](CO)NC(=O)[C@H](CCCCN)NC(=O)[C@H](CCCNC(=N)N)NC(=O)[C@H](Cc1ccccc1)NC(=O)[C@H](Cc1ccccc1)NC(=O)[C@H](CC(=O)O)NC(=O)CNC(=O)[C@H](CC(C)C)NC(=O)[C@@H](N)CC(C)C)C(=O)NCC(=O)N[C@@H](CCCCN)C(=O)N[C@@H](CCC(=O)O)C(=O)N[C@@H](Cc1ccccc1)C(=O)N[C@@H](CCCCN)C(=O)N[C@@H](CCCNC(=N)N)C(=O)N[C@H](C(=O)N[C@H](C(=O)N[C@@H](CCC(N)=O)C(=O)N[C@@H](CCCNC(=N)N)C(=O)N[C@H](C(=O)N[C@@H](CCCCN)C(=O)N[C@@H](CC(=O)O)C(=O)N[C@@H](Cc1ccccc1)C(=O)N[C@@H](CC(C)C)C(=O)N[C@@H](CCCNC(=N)N)C(=O)N[C@@H](CC(N)=O)C(=O)N[C@@H](CC(C)C)C(=O)N[C@H](C(=O)N1CCC[C@H]1C(=O)N[C@@H](CCCNC(=N)N)C(=O)N[C@H](C(=O)N[C@@H](CCC(=O)O)C(=O)N[C@@H](CO)C(=O)O)[C@@H](C)O)C(C)C)[C@@H](C)CC)C(C)C)[C@@H](C)CC [LL-37] | – | – | – | – | killed | less than 90% | MIC (P. gingivalis W50; broth dilution in Pg broth, 10^4 CFU, OD 570 nm, seven independent experiments): 25 µg/mL (≈ 5.56 µM) |
| polymyxin B | – | – | – | – | ineffective | retained bactericidal activity | – |
